Test results taken from patent US8987486B2, “Trans-2-decenoic acid derivative and pharmaceutical agent containing the same” (Nagoya Industrial Science Research Institute, priority 2010, dated 2015).

How the values were obtained:
PC12 cells = assay: Evaluation using PC12 cells; immunostaining method for MAPK phosphorylation; format: cell-based; conditions: 30 minutes
Description: PC12 cells were stimulated using the compound of the present invention and the phosphorylation of MAPK was evaluated by means of immunostaining of the cells. The specific operation procedure is as follows.
A cover glass was placed on a 24-well plate followed by coating with poly-L-lysine. PC12 cells were seeded in a cell density of 50,000 cells/well. (The amount of the medium was 400 μL) On the first day after seeding the cells, the medium was exchanged to DMEM containing 1% fetal bovine serum (FBS) and 0.06% L-glutamine.
The compound which was previously diluted with DMSO was dissolved in 100 μl of medium. After 12 to 16 hours from the medium exchange, 100 μl out of 400 μl of the medium was removed from each well and, in place of that, 100 μl of a medium containing the compound was added.
After 30 minutes from the addition, fixation was conducted using 4% paraformaldehyde (PFA) for 10 minutes. The fixed cells were washed with a Tris-buffered saline (TBS) and a TBS containing 0.3% Triton X was added thereto followed by incubating at 37° C. for 30 minutes. This was washed with a TBS and blocked with a TBS containing 3% skim milk for 30 minutes (at room temperature).
This was washed with a TBS for one time and a primary antibody (anti-phospho-p42/44 MAPK antibody; cell signalings; #9102 being diluted with TBS to an extent of 1,000-fold) was added thereto followed by subjecting to the reaction at 4° C. for one night. The primary antibody was removed and washed with a TBS for three times. After that, the secondary antibody (Alexa 488 goat anti-rabbit antibody; Invitrogen: being diluted to an extent of 1,000-fold using a TBS containing 1% Block Ace) was added thereto and the reaction was conducted at room temperature for 3 hours. The secondary antibody was removed and, after washing with a TBS, fixation was conducted with 4% PFA for 1 hour.
This was washed with a TBS, Hoechst (diluted with a TBS to an extent of 2000-fold) was added thereto and nuclear staining was conducted. This was washed and mounted.
Taking the photographic pictures and counting the positive cells were conducted as follows. An all-in-one microscope (manufactured by Keyence) was used, exposing time for pMAPK (green) was made 1/2.8 s, the place was appropriately decided in a Hoechst-stained image and the pictures were taken. Four pictures per one glass sheet were taken.
Photoshop (Adobe) was used and the cells having above a certain luminance were judged to be positive. All cells were labeled using Hoechst 33342 manufactured by Invitrogen and the rate of pMAPK-positive cells in Hoechst-positive cells was calculated. (cf. Table 7)

MAP kinase = assay: Activation (phosphorylation) of MAP kinase by Western immunoblotting in cultured cerebral cortex nerve cells; format: cell-based, rat; conditions: for Ratio of pMAPK to MAPK: Test Example 6, relative to control (0 μg/mL = 1.0)
Description: With regard to the compound 1 ((E)-2-(dimethylamino)-ethyl dec-2-enoate), activation of MAP kinase was measured as follows by a Western immunoblotting.
Nerve cells were dispersed from cerebral cortex of a fetal rat of 17 days age and said nerve cells were cultured for one day in a Dulbecco-modified Eagle medium (DMEM) containing 5% fetal bovine serum. The culture medium was exchanged with a serum-free medium (B27 supplement-added Neurobasal; Invitrogen) and the nerve cells were cultured at the density of 20,000 to 40,000 cells per cm^2 in a culture dish coated with polyornithine.
After three days, the compound 1 was added and the culture was continued for 30 minutes. After that, the cells were recovered on ice using a solution containing a phosphatase inhibitor where Tris-HCl buffer was a base. Protein concentration of the resulting cell extract was quantified using a BCA Protein Assay Kit (Takara Bio KK) and a certine amount of protein (3 μg for the measurement of MAP kinase and 5 μg for the measurement of phosphorylated MAP kinase) was subjected to polyacrylamide gel electrophoresis. The protein was transcribed from the gel after the electrophoresis to a PVDF membrane and a Western immunoblotting was carried out using each of an anti-MAP kinase antibody (Cell Signaling Technology) and an anti-phosphorylated MAP kinase antibody (Cell Signaling Technology) of the primary antibody.
After that, the reaction with an alkaline phosphatase-labeled anti-rabbit IgG antibody (Promega) of the secondary antibody was carried out so that the enzymatic activity was colorized whereupon the MAP kinase and the phosphorylated MAP kinase were measured.
Incidentally, the compound 1 was adjusted to the concentrations of 10 μg/ml, 30 μg/ml, 100 μg/ml and 300 μg/ml by dissolving in 0.1% DMSO. With regard to the control, 0.1% DMSO was added.
Intensity of the concentration of the above-obtained band of the gel subjected to electrophoresis was calculated and quantified using Image J (K. K. Bioarts). The numerical value for the MAP kinase using the compound 1 was divided by the numerical value for the MAP kinase of the control and, further, the numerical value for the phosphorylated MAP kinase using the compound 1 was divided by the numerical value for the phosphorylated MAP kinase of the control whereupon the ratio of the MAP kinase using the compound 1 to the control and the ratio of the phosphorylated kinase using the compound 1 to the control were determined.
After that, the resulting ratio of the phosphorylated MAP kinase to the control was divided by the resulting ratio of the MAP kinase to the control to determine the ratio of the phosphorylated MAP kinase to the MAP kinase (cf. Table 5). In Table 5, “MAPK” means a MAP kinase and “pMAPK” means a phosphorylated MAP kinase. “10”, “30”, “100” and “300” in Table 5 show the examples where 10 μg/ml, 30 μg/ml, 100 μg/ml and 300 μg/ml of the compound 1 were added.
MAP kinase and phosphorylated MAP kinase were measured for the compound 6 ((E)-2-(diethylamino)ethyl dec-2-enoate) and the compound 13 ((E)-2-(2-(diethylamino)ethoxy)ethyl dec-2-enoate) by the same method as in Test Example 1.
Each of the compounds 6 and 13 was dissolved in 0.1% DMSO to adjust to the concentration of 250 μg/ml. With regard to the control, 0.1% DMSO was added. With regard to the concentration of the resulting band of the gel subjected to electrophoresis, its intensity was calculated by the same method as in Test Example 1 using Image J (K. K. Bioarts) and the ratio of the phosphorylated MAP kinase to the control was divided by the resulting ratio of the MAP kinase to the control whereupon the ratio of the phosphorylated MAP kinase to the MAP kinase was determined (cf. Table 6).
With regard to the compound of the present invention, its activation for MAP kinase was measured by the same manner as in Test Example 1.
Each compound was dissolved in 0.1% DMSO to adjust to the concentrations of 30 μg/ml, 60 μg/ml, 125 μg/ml and 250 μg/ml. […]

[1] = tested on: paclitaxel-induced peripheral nerve disorder rats; assay: von Frey test in paclitaxel-induced peripheral nerve disorder rats; format: in vivo; conditions: Rattus norvegicus, ip; single intraperitoneal dose of 300 μ/kg; higher of the thresholds after 1 hour and 5 hours; normal threshold 15; read-out: Recovery rate of 50% reaction threshold value (%)
Description: The effect of the compound of the present invention was tested for a peripheral nerve disorder which is a side effect induced by the administration of paclitaxel (an anti-cancer agent) such as hyperesthesia including allodynia (severe pain induced by such tactile stimuli which usually cause no pain). The compound of the present invention was intraperitoneally administered to rats as a test drug to conduct a von Frey test.
Male SD rats of six weeks age (one group comprising six rats) were used as experimental animals and paclitaxel (2 mg/kg) was intraperitoneally administered every other day for four times in total to prepare paclitaxel-induced peripheral nerve disorder rats. During 18 and 25 days or during 20 to 27 days after initiation of paclitaxel administration, the test drug was intraperitoneally administered in a single dose of […] and the following von Frey test was conducted.
The rats of the above (1) were placed in a transparent acrylic cage with a wire-meshed floor and habituated for about three minutes and the 50% reaction threshold values to the mechanical stimulus of right hind limb were measured before administration of the test drug and after 1, 5 and 24 hours from initiation of the administration.
The measurement was conducted using von Frey filaments (manufactured by North Coast Medical Inc.) in accordance with the methods of Chaplan, et al. (Journal of Neuroscience Methods, vol. 53, no. 1, pages 55 to 63, 1994) and Dixon, et al. (Annual Review of Pharmacology and Toxicology, vol. 20, pages 441 to 462, 1980). […] The case where the rat escaped at the instance of removing the filament was also called positive. When the positive reaction was noted, stimulus was conducted similarly using a filament of one rank weaker while, when no reaction was noted, stimulus was conducted similarly using a filament of one rank stronger and the point when the reaction changed from negative to positive or from positive to negative was called the first two reactions. After that, stimulus was conducted for continuous four times by the same up-down method. A 50% reaction threshold value to the mechanical stimulus was measured using the reaction to the six stimuli in total and then (mean value)±(standard error) for each group was calculated. Incidentally, when stimulus reached by that of 15.0 g without positive reaction or, when positive reaction continued to 0.4 g, then 15.0 g or 0.25 g was adopted as each threshold value, respectively. With regard to the higher 50% reaction threshold value between the 50% threshold values after 1 hour and 5 hours from administration of a test drug, a recovery rate (%) of the 50% reaction threshold value was calculated by the following expression in which 15 was adopted as the normal threshold value. Recovery rate (%) of 50% reaction threshold value=[(50% reaction threshold value after 1 hour or 5 hours from administration of test drug)−(50% reaction threshold value before administration of test drug)]/[(Normal threshold value)−(50% reaction threshold value before administration of test drug)]

SMILES: CCCCCCC/C=C/C(=O)OCCCCN(C)C [Compound 4, (E)-4-(dimethylamino)butyl dec-2-enoate]
- Rate of pMAPK-positive cells (%) (PC12 cells; 62.5 μg/mL): 12%
- Rate of pMAPK-positive cells (%) (PC12 cells; 125 μg/mL): 27%
- Rate of pMAPK-positive cells (%) (PC12 cells; 250 μg/mL): 64%
- Rate of pMAPK-positive cells (%) (PC12 cells; 500 μg/mL): 81%
- Ratio of pMAPK to MAPK (MAP kinase; 30 μg/mL): 2.2
- Ratio of pMAPK to MAPK (MAP kinase; 60 μg/mL): 3.2
- Ratio of pMAPK to MAPK (MAP kinase; 125 μg/mL): 20.6

SMILES: CCCCCCC/C=C/C(=O)SCCN(CC)CC [Compound 56, (E)-S-2-(diethylamino)ethyl dec-2-enethioate]
- inhibition in vivo at 0.3 mg/kg [1]: 60.5%
- Ratio of pMAPK to MAPK (MAP kinase; 60 μg/mL): 5.0
- Ratio of pMAPK to MAPK (MAP kinase; 125 μg/mL): 7.4
- Ratio of pMAPK to MAPK (MAP kinase; 250 μg/mL): 5.7

SMILES: CCCCCCC/C=C/C(=O)OCCOCCN(CC)CC [Compound 13, (E)-2-(2-(diethylamino)ethoxy)ethyl dec-2-enoate]
- Rate of pMAPK-positive cells (%) (PC12 cells; 62.5 μg/mL): 35%
- Rate of pMAPK-positive cells (%) (PC12 cells; 125 μg/mL): 35%
- Rate of pMAPK-positive cells (%) (PC12 cells; 250 μg/mL): 52%
- Ratio of pMAPK to MAPK (MAP kinase; 30 μg/mL): 2.6
- Ratio of pMAPK to MAPK (MAP kinase; 60 μg/mL): 3.1
- Ratio of pMAPK to MAPK (MAP kinase; 125 μg/mL): 1.3
- pMAPK/MAPK/Control (MAP kinase; 250 μg/ml, Test Example 2, control = 1.00): 1.46
